Reference: patent US12351580B2, “NLRP3 modulators” (Innate Tumor Immunity, Inc., priority 2017, dated 2025)

molecular target: T1, TLR8 (Homo sapiens, UniProt Q9NR97); experiment: In vitro human TLR8 binding reporter assay (HEK-Blue, NF-kB/AP1-inducible SEAP); format: cell-based; settings: activity range symbols
T1 construct: host or cells: HEK-Blue cells (human HEK) co-expressing TLR8 and an NF-kB/AP1-inducible SEAP reporter
T1 sequence (Q9NR97 27-1041): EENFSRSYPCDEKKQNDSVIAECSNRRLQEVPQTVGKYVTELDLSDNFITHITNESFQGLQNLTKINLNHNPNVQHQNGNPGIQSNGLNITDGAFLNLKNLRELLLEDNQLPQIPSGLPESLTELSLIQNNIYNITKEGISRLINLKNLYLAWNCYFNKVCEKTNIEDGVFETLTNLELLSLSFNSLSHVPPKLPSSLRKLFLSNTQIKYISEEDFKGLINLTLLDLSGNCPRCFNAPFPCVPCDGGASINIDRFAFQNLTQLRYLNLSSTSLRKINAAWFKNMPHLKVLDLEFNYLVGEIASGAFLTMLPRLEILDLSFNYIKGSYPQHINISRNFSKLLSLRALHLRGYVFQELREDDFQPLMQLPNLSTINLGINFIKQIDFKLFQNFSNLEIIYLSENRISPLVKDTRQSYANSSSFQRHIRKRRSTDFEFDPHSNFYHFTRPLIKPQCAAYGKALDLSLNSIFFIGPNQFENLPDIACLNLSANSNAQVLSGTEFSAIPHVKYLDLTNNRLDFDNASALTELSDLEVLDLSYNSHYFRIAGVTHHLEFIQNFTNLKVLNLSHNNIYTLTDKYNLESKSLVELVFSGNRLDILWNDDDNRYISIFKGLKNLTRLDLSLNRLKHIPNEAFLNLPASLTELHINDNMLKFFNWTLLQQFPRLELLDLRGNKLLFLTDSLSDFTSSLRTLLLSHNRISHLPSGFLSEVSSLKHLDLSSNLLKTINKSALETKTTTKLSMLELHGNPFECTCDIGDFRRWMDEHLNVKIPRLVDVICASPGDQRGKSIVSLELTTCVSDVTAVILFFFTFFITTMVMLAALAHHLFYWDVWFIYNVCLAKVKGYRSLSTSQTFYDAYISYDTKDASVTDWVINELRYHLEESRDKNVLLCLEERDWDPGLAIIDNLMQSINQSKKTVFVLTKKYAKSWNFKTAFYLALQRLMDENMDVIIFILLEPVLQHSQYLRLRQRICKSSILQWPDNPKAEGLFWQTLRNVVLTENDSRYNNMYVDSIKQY
Protocol: In Vitro Human TLR7 and TLR8 Binding Reporter Assays
Logarithmically-growing human HEK-Blue cells co-expressing a TLR7 or TLR8 gene and a NF-kB/AP1-inducible SEAP (secreted embryonic alkaline phosphatase; Invivogen, San Diego, CA) reporter gene are added to individual wells of a 384-well plate (15,000 cells per 20 μL per well) and maintained for 24 h at 37° C., 5% CO2. Test compounds or DMSO are distributed to separate wells the next day using acoustic liquid handling technology (100 nL per well) and cells are subsequently incubated for 18 h at 37° C., 5% CO2. Cellular SEAP production is measured using an Envision plate reader instrument thirty minutes after adding freshly-made Quanti-Blue reagent (prepared by following manufacturer instructions; Invivogen, San Diego, CA) to the HEK-Blue TLR Nf-kB-SEAP cell reactions. All EC50 values (half-maximal effective concentration) are determined using proprietary data analysis software.

CCN(Cc1nc2c(N)nc3ccc(Br)cc3c2[nH]1)C(=O)c1ccccc1 [Compound 204] and CCN(Cc1nc2c(N)nc3ccc(Br)cc3c2[nH]1)C(=O)OC [Compound 200] cannot be ordered by EC50: greater than 100 µM for the first, greater than 100 µM for the second.

CCN(Cc1nc2c(N)nc3cc(C(F)(F)F)ccc3c2n1CCCC(=O)N1CCOCC1)C(=O)OC(C)(C)C [Compound 228] and CCN(Cc1nc2c(N)nc3cc(C(F)(F)F)ccc3c2n1CCCC(=O)NC)C(=O)OC(C)(C)C [Compound 226] cannot be ordered by EC50: greater than 100 µM for the first, greater than 100 µM for the second.

Nc1nc2cc(C3CCCCC3)ccc2c2[nH]c(CN3CCCC3=O)nc12 [Compound 302, 1-[(4-amino-7-cyclohexyl-1H-imidazo[4,5-c]quinolin-2-yl)methyl]pyrrolidin-2-one] and Nc1nc2cc(C(F)(F)F)ccc2c2[nH]c(CN3CCCC3=O)nc12 [Compound 163] cannot be ordered by EC50: greater than 100 µM for the first, greater than 100 µM for the second.

COC(=O)CCCn1c(CN(C)C(C)=O)nc2c(N)nc3ccccc3c21 [Compound 188] and CCN(Cc1nc2c(N)nc3ccccc3c2n1CCCNC(=O)OC(C)(C)C)C(C)=O [Compound 191] cannot be ordered by EC50: greater than 100 µM for the first, greater than 100 µM for the second.

Nc1nc2cc(-c3ccccc3F)ccc2c2[nH]c(CN3CCCC3=O)nc12 [Compound 284, 1-[[4-amino-7-(2-fluorophenyl)-1H-imidazo[4,5-c]quinolin-2-yl]methyl]pyrrolidin-2-one] and COc1ccccc1-c1ccc2c(c1)nc(N)c1nc(CN3CCCC3=O)[nH]c12 [Compound 283, 1-[[4-amino-7-(2-methoxyphenyl)-1H-imidazo[4,5-c]quinolin-2-yl]methyl]pyrrolidin-2-one] cannot be ordered by EC50: greater than 100 µM for the first, greater than 100 µM for the second.

CCN(Cc1nc2c(N)nc3cc(Br)ccc3c2n1CCCC(=O)N1CCN(C)CC1)C(C)=O [Compound 209] and CCN(Cc1nc2c(N)nc3cc(Cl)ccc3c2n1CCCC(=O)N1CCN(C)CC1)C(C)=O [Compound 221] cannot be ordered by EC50: greater than 100 µM for the first, greater than 100 µM for the second.

CCNCc1nc2c(N)nc3cc(C(F)(F)F)ccc3c2n1CCCC(=O)OC [Compound 227] and COC(=O)CCCn1c(CN2CCCC2=O)nc2c(N)nc3cc(Cl)ccc3c21 [Compound 216] cannot be ordered by EC50: greater than 100 µM for the first, greater than 100 µM for the second.

First: CC(=O)NCc1nc2c(N)nc3ccccc3c2[nH]1 [Compound 233]
Second: CC(=O)N(C)Cc1nc2c(N)nc3ccccc3c2[nH]1 [Compound 187]
The EC50 of the first is higher: greater than 100 µM for the first, 20 to 100 µM for the second.

CCN(Cc1nc2c(N)nc3cc(-n4cccn4)ccc3c2[nH]1)C(C)=O [Compound 180, N-[(4-amino-7-pyrazol-1-yl-1H-imidazo[4,5-c]quinolin-2-yl)methyl]-N-ethylacetamide] and CCN(Cc1nc2c(N)nc3ccc(-n4cccn4)cc3c2[nH]1)C(C)=O [Compound 207] cannot be ordered by EC50: greater than 100 µM for the first, greater than 100 µM for the second.

CCN(Cc1nc2c(N)nc3cc(-c4cc[nH]n4)ccc3c2[nH]1)C(=O)N(C)C [Compound 110, 1-((4-Amino-7-(1H-pyrazol-3-yl)-1H-imidazo[4,5-c]quinolin-2-yl)methyl)-1-ethyl-3,3-dimethylurea] and CCN(Cc1nc2c(N)nc3cc(-c4cc[nH]n4)ccc3c2[nH]1)C(=O)OC(C)(C)C [Compound 109, tert-Butyl ((4-amino-7-(1H-pyrazol-3-yl)-1H-imidazo[4,5-c]quinolin-2-yl)methyl)(ethyl)carbamate] cannot be ordered by EC50: greater than 100 µM for the first, greater than 100 µM for the second.

CCN(Cc1nc2c(N)nc3cc(Br)ccc3c2[nH]1)C(C)=O [Compound 177] and CCN(Cc1nc2c(N)nc3cc(C(C)C)ccc3c2[nH]1)C(C)=O [Compound 170, N-[(4-amino-7-propan-2-yl-1H-imidazo[4,5-c]quinolin-2-yl)methyl]-N-ethylacetamide] cannot be ordered by EC50: greater than 100 µM for the first, greater than 100 µM for the second.

Cc1ccn(-c2ccc3c(c2)nc(N)c2nc(CN4CCCC4=O)[nH]c23)n1 [Compound 301, 1-[[4-amino-7-(3-methylpyrazol-1-yl)-1H-imidazo[4,5-c]quinolin-2-yl]methyl]pyrrolidin-2-one] and Cc1cccc(-c2ccc3c(c2)nc(N)c2nc(CN4CCCC4=O)[nH]c23)c1 [Compound 286, 1-[[4-amino-7-(3-methylphenyl)-1H-imidazo[4,5-c]quinolin-2-yl]methyl]pyrrolidin-2-one] cannot be ordered by EC50: greater than 100 µM for the first, greater than 100 µM for the second.

Nc1nc2cc(-c3ccccc3)ccc2c2[nH]c(CN3CCCC3=O)nc12 [Compound 280, 1-[(4-amino-7-phenyl-1H-imidazo[4,5-c]quinolin-2-yl)methyl]pyrrolidin-2-one] and Nc1nc2cc(-c3cccc(Cl)c3)ccc2c2[nH]c(CN3CCCC3=O)nc12 [Compound 285, 1-[[4-amino-7-(3-chlorophenyl)-1H-imidazo[4,5-c]quinolin-2-yl]methyl]pyrrolidin-2-one] cannot be ordered by EC50: greater than 100 µM for the first, greater than 100 µM for the second.

First: CCNCc1nc2c(N)nc3cc(Br)ccc3c2[nH]1 [Compound 225]
Second: CCCc1ccc2c(c1)nc(N)c1nc(CN(CC)C(C)=O)[nH]c12 [Compound 172, N-[(4-amino-7-propyl-1H-imidazo[4,5-c]quinolin-2-yl)methyl]-N-ethylacetamide]
The EC50 of the first is lower: 1 to 20 µM for the first, greater than 100 µM for the second.

CCN(Cc1nc2c(N)nc3cc(-c4cccnc4F)ccc3c2[nH]1)C(C)=O [Compound 175, N-[[4-amino-7-(2-fluoropyridin-3-yl)-1H-imidazo[4,5-c]quinolin-2-yl]methyl]-N-ethylacetamide] and CCN(Cc1nc2c(N)nc3cc(-c4cccnc4)ccc3c2[nH]1)C(C)=O [Compound 166, N-[(4-amino-7-pyridin-3-yl-1H-imidazo[4,5-c]quinolin-2-yl)methyl]-N-ethylacetamide] cannot be ordered by EC50: greater than 100 µM for the first, greater than 100 µM for the second.

CCN(Cc1nc2c(N)nc3cc(Cl)ccc3c2n1CCCC(=O)N1CCOCC1)C(C)=O [Compound 220] and CCN(Cc1nc2c(N)nc3cc(Cl)ccc3c2n1CCCC(=O)NC)C(C)=O [Compound 217] cannot be ordered by EC50: greater than 100 µM for the first, greater than 100 µM for the second.

CCN(Cc1nc2c(N)nc3cc(C4CCCC4)ccc3c2[nH]1)C(C)=O [Compound 173, N-[(4-amino-7-cyclopentyl-1H-imidazo[4,5-c]quinolin-2-yl)methyl]-N-ethylacetamide] and CCN(Cc1nc2c(N)nc3cc(-c4ccccc4)ccc3c2[nH]1)C(C)=O [Compound 165, N-[(4-amino-7-phenyl-1H-imidazo[4,5-c]quinolin-2-yl)methyl]-N-ethylacetamide] cannot be ordered by EC50: greater than 100 µM for the first, greater than 100 µM for the second.

Nc1nc2cc(-n3cccn3)ccc2c2[nH]c(CN3CC(c4ccccc4)CC3=O)nc12 (stereo not shown) [Compound 103] and Nc1nc2cc(-c3cccc(F)c3)ccc2c2[nH]c(CN3CCCC3=O)nc12 [Compound 289, 1-[[4-amino-7-(3-fluorophenyl)-1H-imidazo[4,5-c]quinolin-2-yl]methyl]pyrrolidin-2-one] cannot be ordered by EC50: greater than 100 µM for the first, greater than 100 µM for the second.

CCN(Cc1nc2c(N)nc3cc(-c4cc(C)nn4C)ccc3c2[nH]1)C(C)=O [Compound 168, N-[[4-amino-7-(2,5-dimethylpyrazol-3-yl)-1H-imidazo[4,5-c]quinolin-2-yl]methyl]-N-ethylacetamide] gave an EC50 greater than 100 µM.
